Experimental data reported in patent US8790712B2, “Constitutional function-improving agents” (Cosmo Oil Co., Ltd., priority 2004, dated 2014).

How the values were obtained:
Type in all cases: in vivo, mouse
[1] = test system: porphobilinogen deaminase (PBGD); assay: PBGD activity of blood (Example 5); settings: male mice, 10 mg/kg orally once a day for 7 days
Experimental: Mice (35 to 45 weeks old, BALB/cAJc1) preliminary raised for 1 week were injected with 10 mg of ALA hydrochloride per 1 kg mouse body weight once a day for 7 days continuously. ALA hydrochloride was adjusted to a concentration of […] with distilled water and orally administered to the mice. After the test, each mouse was sacrificed to collect mouse blood, and ALA dehydrase (ALAD) activity (the activity of ALA in which it is dimerized and thereby forms porphobilinogen (hereinafter referred to as “PBG”) as one molecule pyrrole substance) and porphobilinogen deaminase (PBGD) activity (the activity to convert from PBG to hydroxymethylbilane) per 1 ml of the blood were measured. […] To 0.02 ml of heparin-treated mouse whole blood, 0.33 ml of distilled water was added, the mixture was adjusted to a total volume of 0.5 ml by adding thereto 0.05 ml of 0.5 M Na-phosphate buffer (pH 6.4), 0.05 ml of 0.1 M DTT (containing 1 mM ZnSO4) and 0.05 ml of 50 mM ALA hydrochloride and was kept at 37° C. for 30 minutes, the reaction was stopped by adding 0.5 ml of 1 M trichloroacetic acid, and then Ehrlich reagent was added to a supernatant after centrifugation at 3000 rpm in the same volume, and precisely 10 minutes thereafter, absorbance at 553 nm, which is a characteristic absorbance of the compound formed by the reaction of Ehrlich reagent with PBG, was measured (OD) using a spectrophotometer. […]

[2] = test system: glutathione peroxidase (GPx); assay: GPx activity of thymus tissue (Example 3); settings: 10 mg/kg orally once a day for 7 days
Experimental: Mice (35 to 45 weeks old, BALB/cAJc1) preliminary raised for 1 week were injected with 10 mg of ALA hydrochloride per 1 kg mouse body weight once a day for 7 days continuously. ALA hydrochloride was adjusted to a concentration of […] with distilled water and orally administered to the mice. After the test, each mouse was sacrificed and the thymus of mouse was collected to measure superoxide dismutase (SOD) activity of its tissue. To the collected thymus, 1.0 ml of 0.25 M sucrose solution was added, and the mixture homogenized and then centrifuged at 10,000 G for 10 minutes, and the resulting supernatant solution was used as the enzyme solution. […] That is, 250 μl of a reaction solution containing 125 μl of 0.1 M potassium phosphate buffer (pH 7.5), 10 μl of the enzyme liquid, 60 μl of 0.1 unit/ml xanthine oxidase, 45 μl of distilled water and 10 μl of 0.3 mM MPEC was dispensed into Luminescencer-PSN (manufactured by Atto Corp.), 50 μl of 0.72 mM hypoxanthine (pH 7.5) was added for emission. […]
In addition, glutathione peroxidase (GPx) activity was also measured. […]
The calculation was carried out by the following formula using the molecular extinction coefficient of NADPH of a=6.3 cm^2/μmole, by calculating the slope of straight line ΔOD (ΔOD=Δcm (quantity of change of y axis)×OD Max/full cm) from the chart. […]

[3] = test system: superoxide dismutase (SOD); assay: SOD activity of thymus tissue (Example 3); settings: 10 mg/kg orally once a day for 7 days
Experimental: Mice (35 to 45 weeks old, BALB/cAJc1) preliminary raised for 1 week were injected with 10 mg of ALA hydrochloride per 1 kg mouse body weight once a day for 7 days continuously. ALA hydrochloride was adjusted to a concentration of […] with distilled water and orally administered to the mice. After the test, each mouse was sacrificed and the thymus of mouse was collected to measure superoxide dismutase (SOD) activity of its tissue. To the collected thymus, 1.0 ml of 0.25 M sucrose solution was added, and the mixture homogenized and then centrifuged at 10,000 G for 10 minutes, and the resulting supernatant solution was used as the enzyme solution. The measurement was carried out using an emission reagent for antioxidant ability measurement, MPEC (2-methyl-6-p-methoxyphenylethynylimidazopyrazinone) (manufactured by Atto Corp.). That is, 250 μl of a reaction solution containing 125 μl of 0.1 M potassium phosphate buffer (pH 7.5), 10 μl of the enzyme liquid, 60 μl of 0.1 unit/ml xanthine oxidase, 45 μl of distilled water and 10 μl of 0.3 mM MPEC was dispensed into Luminescencer-PSN (manufactured by Atto Corp.), 50 μl of 0.72 mM hypoxanthine (pH 7.5) was added for emission. For the calculation of emission inhibition ratio, the buffer was used instead of the enzyme liquid. For the calculation, a calibration curve was prepared using standard SOD, and the concentration calculation was carried out using this.
The test was carried out using 5 male and 5 female mice, a total of 10 animals, for each plot, and the values were shown by average value. It was confirmed that the SOD activity or GPx activity is improved in both cases of male and female in the ALA-treated plot.

[4] = test system: Mice (35 to 45 weeks old, BALB/cAJc1); assay: Migration distance in cage for 5 minutes (Example 4); settings: 10 mg/kg orally once a day for 7 days; for Exercise quantity (m): migration distance in 5 minutes
Experimental: Mice (35 to 45 weeks old, BALB/cAJc1) preliminary raised for 1 week were injected with 10 mg of ALA hydrochloride per 1 kg mouse body weight once a day for 7 days continuously. ALA hydrochloride was adjusted to a concentration of 0.5 g/ml with distilled water and orally administered to the mice. After the test, the mouse was put into a cage of 20 cm×20 cm in floor area, and its migration distance was measured for 5 minutes. The test was carried out using 5 male and 5 female mice, a total of 10 animals, for each plot, and the values were shown by average value. It was confirmed that the migration distance is long and the capacity for locomotion is improved in both cases of male and female in the ALA-treated plot.

Work on NCC(=O)CCC(=O)O [ALA, 5-aminolevulinic acid] yielded a PBGD activity [1] of 67.36 nmol URO/ml RBC/h, a GPx activity ([2]; female mice) of 0.67 U/ml and a GPx activity ([2]; male mice) of 0.61 U/ml. For the same compound, the SOD activity ([3]; female mice) was 30.7 U/ml, the “Total SOD activity” value ([3]; female mice) was 31.84 U/organ and the SOD activity ([3]; male mice) was 20.2 U/ml. The “Total SOD activity” value ([3]; male mice) was 20.95 U/organ, the “Symptoms such as abnormal stimulation and action” value ([4]; ALA-treated mice during the test) was “symptoms such as abnormal stimulation and action were not observed” and the “Exercise quantity (m)” value ([4]; female mice) was 25.5 m. The “Exercise quantity (m)” value ([4]; male mice) was 41 m.
